Data set [1] is described as follows: In vitro stability in mouse liver microsomes. It is filed as in vitro ADME. The procedure: Figure S1. Percent BAP or pro-hpAP remaining after incubation in mouse liver microsomes (+/-NADPH) (a), mouse plasma (b), or mouse liver homogenates (c). Data shown as bar graphs in Figure 4.
For orientation: Liver microsomes are a subcellular fraction often used to study metabolism.

The nature of data set [2]: In vivo PK studies in CD-1 mice. As for the experimental part: For pharmacokinetic analysis, both male (n = 2) and female (n = 2) CD1 mice were dosed with either BAP or pro-hpAP by intraperitoneal (IP) route or administration (100 mg/kg) and (30 mg/kg), respectively. Blood and tissue samples were collected at predetermined time points (0–6 h post-dose). Plasma was generated from blood by low-speed centrifugation (3,000 × g), and all samples were stored at −80°C until bioanalysis.
Non-compartmental-analysis module in WinNonlin was used to assess blood pharmacokinetic parameters including max concentrations (Cmax), time to Cmax (Tmax), area under the curve (AUC), area extrapolated to infinity (AUC0–∞), and terminal half-life (t1/2). In addition, the tissue penetration index was measured as the ratio of AUCtissue to AUCplasma.
To quantify BAP and pro-hpAP, methanol containing 0.5 µM losartan as an internal standard was added 5 µL/µL plasma or 5 µL/mg tissue in microcentrifuge tubes. Tissue was further homogenized using a Spex Geno/Grinder with stainless steel beads for 3 min at 1,500 RPM. Homogenates from untreated animals were spiked with the analytes from 100 to 0.01 nmol/g tissue by serial dilution to generate a standard curve. Plasma and tissue homogenates were then vortexed and centrifuged (16,000 × g for 5 min at 4°C) to precipitate proteins. Supernatants were transferred to a 96 well plate and 2 µL was injected on a Accela 1250 LC coupled to a Vantage triple quadrupole mass spectrometer (Thermo Fisher Scientific Inc., Waltham MA). Samples were separated on an Agilent EclipsePlus C18 RRHD (1.8 µm) 2.1 × 100 mm column with mobile phases consisting of water +0.1% formic acid (A), and acetonitrile + 0.1% formic acid (B). […] Samples were introduced to the source through heated ion spray with the capillary temperature setting at 350°C, spray voltage of 4 kV and S-Lens RF of 51. Nitrogen was used as the sheath and auxiliary gas with the settings of 50 and 1 arbitrary units, respectively. For BAP, the instrument was operated in negative ion mode scanning for transitions of 179.1 > 63.1, 79.1 (BAP) and 420.9 > 179.1, 127.0 (losartan) which were acquired with collision energies setting of 17; 55 and 25; 41 CE, respectively. For pro-hpAP, the instrument was operated in positive ion mode scanning for transitions of 346.2 to 86.1 and 143.2 (pro-hpAP) and 422.9 to 207.1 and 180.1 (losartan) which were acquired with collision energies setting of 29; 17 and 37; 22 CE, respectively. Peaks were quantified with Xcalibur software.

Data set [3] can be described thus: In vitro stability in mouse liver homogenate. It is filed as in vitro ADME. Particulars: mouse liver homogenate (10%, wt/vol), 10 µM. As for the experimental part: In vitro stability studies were conducted using our previously published methods naive CD1 mouse plasma or liver homogenate. For liver homogenate stability study, washed mouse liver was diluted 10-fold in 0.1 M potassium phosphate buffer and homogenized using probe sonication. Crude homogenate was then aliquoted to 1 mL, and the homogenate was spiked with 10 µM compound. The plasma stability of the compounds was determined by spiking (10 µM) in 1 mL of plasma and incubating in an orbital shaker at 37°C. All the stability studies were conducted at predetermined times (0, 30, and 60 min), where 100 µL aliquots of the mixture in triplicate were removed and the reaction was quenched by the addition of three times the volume of ice-cold acetonitrile spiked with the internal standard (losartan: 0.5 µM). The samples were vortex-mixed for 30 s and centrifuged at 10,000g for 10 min at 4°C. An amount of 50 µL of the supernatant was diluted with 50 µL of water and transferred to a 250 µL polypropylene vial sealed with a Teflon cap. Compound disappearance was monitored over time using liquid chromatography and tandem mass spectrometry (LC–MS/MS). Paired t-tests were used to determine statistical significance between 0 and 60 min time points.

For data set [4], the system named is UPEC (CFT073). Also noted: method as in PMID 37107054. Particulars: cited from earlier work.
Data set [5] has as its system UPEC (CFT073). Nature of the data set: Antimicrobial susceptibility of UPEC (CFT073) grown in urine. It is filed as cell-based, uropathogenic Escherichia coli. The procedure: Pooled human urine was filter-sterilized prior to use. Solid urine agar plates were prepared by supplementing cooled 1.5% (wt/vol) agar with filter-sterilized urine in a 4:1 ratio. OD600 measurements were performed on a Beckman DU800 UV/Visible spectrophotometer (Brea, CA, USA). MIC determination data were collected from bacteria in 96-well plates (Nunc Edge 96-Well, Non-Treated, Flat-Bottom Microplate) incubated and read on a Biotek Epoch 2 microplate reader. Uropathogenic E. coli strain CFT073 (ATCC: BAA-2503) was obtained from the lab of Rodney Welch ([58]). All microbial manipulation of pathogenic bacteria was conducted in a certified biosafety level 2 laboratory following all associated safety protocols. A hand-held tissue homogenizer (purchased from IKA, T10 basic S001, 3737001) was used to homogenize mouse bladders for bacterial enumeration.
UPEC (CFT073) cells from frozen glycerol stocks were streaked onto urine agar plates and grown for 48 h at 37°C. Three to five isolated colonies were inoculated into filter-sterilized urine supplemented with FeSO4 (20 µM), and the cultures were grown overnight with shaking at 37°C. The saturated cultures were subcultured (1:50) in fresh urine supplemented with FeSO4 (20 µM) and grown to exponential phase (OD600 ~ 0.25). Cultures at exponential phase were diluted 1:1,000 into fresh urine supplemented with FeSO4 (20 µM) to yield the experimental inoculum which was mixed 1:1 with urine containing pro-hpAP at 2 × the desired final concentration (0–10 µM). The final concentration of bacteria in each well was ~10^5 CFU/mL in a volume of 200 µL. Colony counts of the experimental inoculum were independently verified by dilution and enumeration on LB agar, grown for 16 h at 37°C, to confirm consistency between experiments. The 96-well plates were incubated at 37°C for 16 h with intermittent shaking. Fractional growth of cells treated with pro-hpAP was determined at 8 h relative to the no drug control. MIC determination was performed in biological triplicate.

The mark [6] stands for this setting: Bladder, single 100 mg/kg IP dose of BAP.
Setting [7] is: Brain, single 100 mg/kg IP dose of BAP.
Setting [8] is: Kidney, single 100 mg/kg IP dose of BAP.
[9] abbreviates: Plasma, single 100 mg/kg IP dose of BAP.

Molecules are shown by their SMILES. In brackets after ≈: the same amount, converted by molar mass. Read-outs that look alike come from different tables or passages of the source. Where only a bound is given, the exact number is not on record here.

With `CCCCOP(=O)(O)C(C)=O` [BAP, butyl acetylphosphonate], in data set [1] (at 1 h), the “% remaining in liver microsomes” value stood at 94%. In addition, the AUC(0-t) in data set [2] (setting [6]) amounted to 1990 ± 110 µM·h; in data set [2] (setting [7]), 12.5 ± 1.8 µM·h; in data set [2] (setting [8]), 136 ± 7 µM·h; in data set [2] (setting [9]), 233 ± 27 µM·h. Also, the maximum concentration (Cmax) in data set [2] (setting [6]) was found to be 1840 ± 230 µM; in data set [2] (setting [7]) it was 16.2 ± 2.6 µM; in data set [2] (setting [8]), 298 ± 37 µM; in data set [2] (setting [9]) it was 650 ± 190 µM. Besides, the Tmax in data set [2] (setting [6]), in data set [2] (setting [8]) and in data set [2] (setting [9]) was 4.8 min throughout. In addition, the AUC in data set [2] (bladder, BAP 100 mg/kg IP) is 1,990 ± 110 nmol h/g; in data set [2] (brain, BAP 100 mg/kg IP), 12.5 ± 1.8 nmol·h/g; in data set [2] (kidney, BAP 100 mg/kg IP), 136 ± 7 nmol·h/g; in data set [2] (plasma, BAP 100 mg/kg IP), 233 ± 27 nmol·h/mL. In addition, the “% remaining in liver homogenate” value in data set [3] (at 1 h) is 22%. Also, the “MIC (growth suppressed >90%)” value in data set [4] (UPEC CFT073 in urine) is 1250 µM (≈ 225 µg/mL). Further, the “reduction in UPEC growth” value in data set [4] (in urine, at 156 µM BAP) was ~ 80%.
Compound `C#CCCOP(=O)(O)C(=C)NC(=O)C(CC(C)C)NC(=O)CN` (stereo not shown) [pro-hpAP] had an amount remaining at 1 h in data set [1] of 90%. Besides, the AUC in data set [2] (bladder, pro-hpAP 30 mg/kg IP, analyte = labelled substance (pro-hpAP or released hpAP)) was determined as 6.2 ± 1.3 nmol·h/g; in data set [2] (both sexes, CD1, mouse, plasma, pro-hpAP 30 mg/kg IP, analyte = labelled substance, read-out: AUC), 3.2 ± 0.21 nmol·h/mL; in data set [2] (brain, pro-hpAP 30 mg/kg IP, analyte = labelled substance) it was 0.115 ± 0.014 nmol·h/g; in data set [2] (kidney, pro-hpAP 30 mg/kg IP, analyte = labelled substance), 0.516 ± 0.048 nmol·h/g. The Cmax is 24.3 ± 8.5 µM in data set [2] (both sexes, CD1, mouse, Bladder, single 30 mg/kg IP dose of pro-hpAP, analyte = labelled substance); 0.134 ± 0.036 µM in data set [2] (both sexes, CD1, mouse, Brain, single 30 mg/kg IP dose of pro-hpAP, analyte = labelled substance); 0.715 ± 0.09 µM in data set [2] (both sexes, CD1, mouse, Kidney, single 30 mg/kg IP dose of pro-hpAP, analyte = labelled substance); 20.2 ± 1.9 µM in data set [2] (both sexes, CD1, mouse, Plasma, single 30 mg/kg IP dose of pro-hpAP, analyte = labelled substance (pro-hpAP or released hpAP)). In addition, the AUC(0-t) amounted to 6.2 ± 1.3 µM·h in data set [2] (both sexes, CD1, mouse, Bladder, single 30 mg/kg IP dose of pro-hpAP, analyte = labelled substance, read-out: AUC0-t); 0.115 ± 0.014 µM·h in data set [2] (both sexes, CD1, mouse, Brain, single 30 mg/kg IP dose of pro-hpAP, analyte = labelled substance, read-out: AUC0-t); 0.516 ± 0.048 µM·h in data set [2] (both sexes, CD1, mouse, Kidney, single 30 mg/kg IP dose of pro-hpAP, analyte = labelled substance, read-out: AUC0-t); 3.2 ± 0.21 µM·h in data set [2] (both sexes, CD1, mouse, Plasma, single 30 mg/kg IP dose of pro-hpAP, analyte = labelled substance, read-out: AUC0-t). The Tmax worked out at 4.8 min in data set [2] (both sexes, CD1, mouse, Bladder, single 30 mg/kg IP dose of pro-hpAP, analyte = labelled substance, read-out: Tmax); 4.8 min in data set [2] (both sexes, CD1, mouse, Brain, single 30 mg/kg IP dose of pro-hpAP, analyte = labelled substance, read-out: Tmax); 4.8 min in data set [2] (both sexes, CD1, mouse, Kidney, single 30 mg/kg IP dose of pro-hpAP, analyte = labelled substance, read-out: Tmax); 4.8 min in data set [2] (both sexes, CD1, mouse, Plasma, single 30 mg/kg IP dose of pro-hpAP, analyte = labelled substance, read-out: Tmax). Besides, in data set [5] (Escherichia coli, UPEC CFT073 in urine, read-out: MIC (growth suppressed >90%)), the MIC is 5 µM (≈ 1.73 µg/mL). The “reduction in fractional growth” value in data set [5] (UPEC CFT073 in urine, at 630 nM pro-hpAP, 8 h) is over 70%. Also, the “higher potency than BAP (MIC in urine)” value in data set [5] (UPEC in urine, relative to BAP) was found to be 250 fold. Moreover, in data set [3] (30 min incubation), the “prodrug remaining in liver homogenate” value is “no prodrug remaining”.

Usually Cmax stands for the peak of the concentration-time curve. Broadly, the Tmax is the time at which the peak concentration occurs. A word on the fraction remaining: it is the share of the starting amount still present when the sample was taken. In general, MIC refers to the lowest concentration found to suppress growth.

Source of the values: paper PMC10986598, “Investigating inhibitors of 1-deoxy-D-xylulose 5-phosphate synthase in a mouse model of UTI” (Microbiology Spectrum, 2024).
